# Laboratory results from patent US7098340B2, “Benzyl sulfonamide derivatives” (Warner Lambert Company LLC, priority 2003, dated 2006).
# Molecular target: T1, androgen receptor (Homo sapiens, UniProt P10275)
# T1 sequence (P10275 1-920 Q868H): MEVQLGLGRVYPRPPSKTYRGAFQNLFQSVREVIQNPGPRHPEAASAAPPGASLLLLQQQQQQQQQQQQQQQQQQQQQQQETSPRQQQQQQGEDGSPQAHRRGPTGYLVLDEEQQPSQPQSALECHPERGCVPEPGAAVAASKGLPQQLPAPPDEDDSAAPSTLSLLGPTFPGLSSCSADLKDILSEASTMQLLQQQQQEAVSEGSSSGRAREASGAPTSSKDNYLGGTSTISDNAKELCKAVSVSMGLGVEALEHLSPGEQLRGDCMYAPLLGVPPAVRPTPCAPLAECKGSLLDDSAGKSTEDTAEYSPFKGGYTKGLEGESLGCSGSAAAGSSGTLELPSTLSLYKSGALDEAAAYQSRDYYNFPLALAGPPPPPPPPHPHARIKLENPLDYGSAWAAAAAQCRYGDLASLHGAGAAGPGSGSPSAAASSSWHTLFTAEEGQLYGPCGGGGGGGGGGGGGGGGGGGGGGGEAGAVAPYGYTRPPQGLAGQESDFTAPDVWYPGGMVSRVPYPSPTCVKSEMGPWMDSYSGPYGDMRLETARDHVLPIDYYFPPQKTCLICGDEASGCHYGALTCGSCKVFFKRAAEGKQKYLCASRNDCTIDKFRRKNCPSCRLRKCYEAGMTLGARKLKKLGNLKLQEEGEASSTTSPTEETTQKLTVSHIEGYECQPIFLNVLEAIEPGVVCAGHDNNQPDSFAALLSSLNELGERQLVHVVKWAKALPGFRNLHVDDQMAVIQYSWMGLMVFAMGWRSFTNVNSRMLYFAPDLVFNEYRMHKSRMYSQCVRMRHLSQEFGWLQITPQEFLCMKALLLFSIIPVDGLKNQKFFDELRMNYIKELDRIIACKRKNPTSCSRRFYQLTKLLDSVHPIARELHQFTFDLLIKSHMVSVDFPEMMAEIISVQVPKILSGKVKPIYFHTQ
# Experiment: AR Antagonist Cell Assay (MMTV-luciferase reporter, DHT-stimulated)
# Type: cell-based
# Settings: MDA-MB453-MMTV clone 54-19 cells; antagonism of 100 pM DHT, 17 hr, luciferase readout
# Description: The compounds ability to antagonize the effects of androgen on the androgen receptor were determined in the protocol described immediately below.
# Experimental Procedure for AR Antagonist Cell Assay
# Cell line: MDA-MB453-MMTV clone 54–19. This cell line is a stable transfected cell line with MDA-MB453 cell background (human breast tumor cell expressing high level of androgen receptor). A MMTV minimal promoter containing ARE was first cloned in front of a firefly luciferase reporter gene. Then the cascade was cloned into transfection vector pUV120puro. Electroporation method was used for transfecting MDA-MB-453 cell. Puromycin resistant stable cell line was selected.
# Cell Culture Media and Reagents:
# Culture medium: DMEM (high glucose, Gibco cat #: 11960-044), 10% FBS, and 1% L-glutamine
# Plating medium: DMEM (phenol red free), 10% charcoal treated HyClone serum, 1% L-glutamine
# Assay medium: DMEM (phenol red free), 1% charcoal treated HyClone serum, 1% L-glutamine, and 1% penicillin/streptomycin
# 3× luciferase buffer: 2% beta-mercaptoethanol, 0.6% ATP, 0.0135% luciferine in cell lysis buffer
# • 1. Cells are maintained in culture medium, splitting cells when they reach 80–90% confluence • 2. To test compounds, 10,000 cells/well are plated to opaque 96 cell culture plate in 100 ul/well plating medium, culture for overnight at 37° C. in cell culture incubator • 3. Carefully remove plating medium, then add 80 ul/well of pre-warmed assay medium, add 10 ul/well testing compound (final concentration at 10 uM or 1 uM), incubate at 37° C. for 30 minutes • 4. Add 10 ul/well freshly prepared DHT (final concentration at 100 pM) to each well, incubate at 37° C. for 17 hr (overnight) • 5. Add 50 ul/well 3× luciferase buffer, incubate at room temperature for 5 minutes, then count on Luminometer.
# The fold induction over background by 100 pM DHT in the absence of testing compounds is standardized as 100% and experimental result is expressed as percentage of inhibition by testing compounds.
row,IC50 [µM],Structure (SMILES)
1,> 10,"O=c1cc(C(F)(F)F)c2cc(Cc3ccc(S(=O)(=O)Nc4cccc5ncccc45)cc3)ccc2[nH]1 [Example 29, 4-(2-Oxo-4-trifluoromethyl-1,2-dihydroquinolin-6-ylmethyl)-N-quinolin-5-ylbenzenesulfonamide]"
2,> 10,"O=c1cc(C(F)(F)F)c2cc(Cc3ccc(S(=O)(=O)Nc4cccc5cccnc45)cc3)ccc2[nH]1 [Example 30, 4-(2-Oxo-4-trifluoromethyl-1,2-dihydroquinolin-6-ylmethyl)-N-quinolin-8-ylbenzenesulfonamide]"
3,> 10,"O=c1cc(C(F)(F)F)c2cc(Cc3ccc(S(=O)(=O)Nc4cccc5cnccc45)cc3)ccc2[nH]1 [Example 31, N-Isoquinolin-5-yl-4-(2-oxo-4-trifluoromethyl-1,2-dihydroquinolin-6-ylmethyl)-benzenesulfonamide]"
4,6.14,"O=c1cc(C(F)(F)F)c2cc(Cc3ccc(S(=O)(=O)Nc4cccc(OC(F)F)c4)cc3)ccc2[nH]1 [Example 36, N-(3-Difluoromethoxyphenyl)-4-(2-oxo-4-trifluoromethyl-1,2-dihydroquinolin-6-ylmethyl)-benzenesulfonamide]"
5,> 10,"O=c1cc(C(F)(F)F)c2cc(Cc3ccc(S(=O)(=O)Nc4cc(-c5ccccc5)n[nH]4)cc3)ccc2[nH]1 [Example 37, 4-(2-Oxo-4-trifluoromethyl-1,2-dihydroquinolin-6-ylmethyl)-N-(5-phenyl-2H-pyrazol-3-yl)-benzenesulfonamide]"
6,> 10,"O=c1cc(C(F)(F)F)c2cc(Cc3ccc(S(=O)(=O)Nc4cccc(-c5cnco5)c4)cc3)ccc2[nH]1 [Example 38, N-(3-Oxazol-5-ylphenyl)-4-(2-oxo-4-trifluoromethyl-1,2-dihydroquinolin-6-ylmethyl)benzenesulfonamide]"
7,5.61,"O=c1cc(C(F)(F)F)c2cc(Cc3ccc(S(=O)(=O)Nc4ccccc4Br)cc3)ccc2[nH]1 [Example 40, N-(2-Bromophenyl)-4-(2-oxo-4-trifluoromethyl-1,2-dihydroquinolin-6-ylmethyl)-benzenesulfonamide]"
8,> 10,"O=c1cc(C(F)(F)F)c2cc(Cc3ccc(S(=O)(=O)Nc4cccc(Cc5ccccc5)c4)cc3)ccc2[nH]1 [Example 43, N-(3-Benzylphenyl)-4-(2-oxo-4-trifluoromethyl-1,2-dihydroquinolin-6-ylmethyl)-benzenesulfonamide]"
9,2.8,"O=c1cc(C(F)(F)F)c2cc(Cc3ccc(S(=O)(=O)Nc4cccc(OCc5ccccc5)c4)cc3)ccc2[nH]1 [Example 44, N-(3-Benzyloxyphenyl)-4-(2-oxo-4-trifluoromethyl-1,2-dihydroquinolin-6-ylmethyl)-benzenesulfonamide]"
10,> 10,"COc1ccc(N(Cc2ccccc2)S(=O)(=O)c2ccc(Cc3ccc4[nH]c(=O)cc(C(F)(F)F)c4c3)cc2)cc1 [Example 45, N-Benzyl-N-(4-methoxyphenyl)-4-(2-oxo-4-trifluoromethyl-1,2-dihydroquinolin-6-ylmethyl)-benzenesulfonamide]"
11,4.97,"CC(C)N(c1ccccc1)c1ccc(NS(=O)(=O)c2ccc(Cc3ccc4[nH]c(=O)cc(C(F)(F)F)c4c3)cc2)cc1 [Example 48, N-[4-(Isopropylphenylamino)-phenyl]-4-(2-oxo-4-trifluoromethyl-1,2-dihydroquinolin-6-ylmethyl)-benzenesulfonamide]"
12,> 10,"O=c1cc(C(F)(F)F)c2cc(Cc3ccc(S(=O)(=O)Nc4ccc(-n5ccc(C(F)(F)F)n5)cc4)cc3)ccc2[nH]1 [Example 49, 4-(2-Oxo-4-trifluoromethyl-1,2-dihydroquinolin-6-ylmethyl)-N-[4-(3-trifluoromethylpyrazol-1-yl)phenyl]-benzenesulfonamide]"
13,> 10,"COc1cccc(NS(=O)(=O)c2ccc(Cc3ccc4[nH]c(=O)cc(C(F)(F)F)c4c3)cc2)c1 [Example 50, N-(3-Methoxyphenyl)-4-(2-oxo-4-trifluoromethyl-1,2-dihydroquinolin-6-ylmethyl)-benzenesulfonamide]"

# Further lines, the molecule ahead of its results:
row,Structure (SMILES),IC50 [µM]
1,"CSc1n[nH]c(NS(=O)(=O)c2ccc(Cc3ccc4[nH]c(=O)cc(C(F)(F)F)c4c3)cc2)c1C#N [Example 32, N-(4-Cyano-5-methylsulfanyl-2H-pyrazol-3-yl)-4-(2-oxo-4-trifluoromethyl-1,2-dihydroquinolin-6-ylmethyl)-benzenesulfonamide]",8.02
2,"COc1ccc(OC)c(NS(=O)(=O)c2ccc(Cc3ccc4[nH]c(=O)cc(C(F)(F)F)c4c3)cc2)c1 [Example 33, N-(2,5-Dimethoxyphenyl)-4-(2-oxo-4-trifluoromethyl-1,2-dihydroquinolin-6-ylmethyl)-benzenesulfonamide]",> 10
3,"COc1cc(NS(=O)(=O)c2ccc(Cc3ccc4[nH]c(=O)cc(C(F)(F)F)c4c3)cc2)cc(OC)c1 [Example 34, N-(3,5-Dimethoxyphenyl)-4-(2-oxo-4-trifluoromethyl-1,2-dihydroquinolin-6-ylmethyl)-benzenesulfonamide]",> 10
4,"O=c1cc(C(F)(F)F)c2cc(Cc3ccc(S(=O)(=O)Nc4cc(F)c(F)c(F)c4)cc3)ccc2[nH]1 [Example 35, 4-(2-Oxo-4-trifluoromethyl-1,2-dihydroquinolin-6-ylmethyl)-N-(3,4,5-trifluorophenyl)-benzenesulfonamide]",> 10
5,"O=c1cc(C(F)(F)F)c2cc(Cc3ccc(S(=O)(=O)Nc4cccc(C(F)(F)F)c4)cc3)ccc2[nH]1 [Example 39, 4-(2-Oxo-4-trifluoromethyl-1,2-dihydroquinolin-6-ylmethyl)-N-(3-trifluoromethylphenyl)-benzenesulfonamide]",> 10
6,"O=c1cc(C(F)(F)F)c2cc(Cc3ccc(S(=O)(=O)Nc4ccccc4N4CCCCC4)cc3)ccc2[nH]1 [Example 41, 4-(2-Oxo-4-trifluoromethyl-1,2-dihydroquinolin-6-ylmethyl)-N-(2-piperidin-1-ylphenyl)-benzenesulfonamide]",> 10
7,"O=c1cc(C(F)(F)F)c2cc(Cc3ccc(S(=O)(=O)Nc4cccc(OC(F)(F)F)c4)cc3)ccc2[nH]1 [Example 42, 4-(2-Oxo-4-trifluoromethyl-1,2-dihydroquinolin-6-ylmethyl)-N-(3-trifiuoromethoxyphenyl)-benzenesulfonamide]",> 10
8,"O=c1cc(C(F)(F)F)c2cc(Cc3ccc(S(=O)(=O)Nc4cccc5c4OC(F)(F)C(F)(F)O5)cc3)ccc2[nH]1 [Example 47, 4-(2-Oxo-4-trifluoromethyl-1,2-dihydroquinolin-6-ylmethyl)-N-(2,2,3,3-tetrafluoro-2,3-dihydrobenzo[1,4]dioxin-5-yl)-benzenesufonamide]",> 10
9,"O=c1cc(C(F)(F)F)c2cc(Cc3ccc(S(=O)(=O)NCCO)cc3)ccc2[nH]1 [Example 51, N-(2-Hydroxyethyl)-4-(2-oxo-4-trifluoromethyl-1,2-dihydroquinolin-6-ylmethyl)-benzenesulfonamide]",2.18
10,"O=c1cc(C(F)(F)F)c2cc(Cc3ccc(S(=O)(=O)NC4CCN(Cc5ccccc5)CC4)cc3)ccc2[nH]1 [Example 52, N-(1-Benzylpipendin-4-yl)-4-(2-oxo-4-trifluoromethyl-1,2-dihydroquinolin-6-ylmethyl)-benzenesulfonamide]",9.9
11,"COCCNS(=O)(=O)c1ccc(Cc2ccc3[nH]c(=O)cc(C(F)(F)F)c3c2)cc1 [Example 53, N-(2-Methoxyethyl)-4-(2-oxo-4-trifluoromethyl-1,2-dihydroquinolin-6-ylmethyl)-benzenesulfonamide]",> 10
